Laboratory results: PubChem BioAssay (NCI)
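Values below derive from 48-hour exposures of cells grown in 96-well plates, with endpoints linearly interpolated between the two concentrations bracketing the appropriate inhibition level. TGI: concentration producing complete growth inhibition.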

Columns and labels:
Assay in all cases: DTP human tumour cell line panel, 48 h
SK-MEL-28 melanoma = tested on: SK-MEL-28 melanoma
NCI-H23 lung = tested on: NCI-H23 lung
NCI-H460 lung = tested on: NCI-H460 lung
IGROV1 ovarian = tested on: IGROV1 ovarian
SK-MEL-2 melanoma = tested on: SK-MEL-2 melanoma
OVCAR-3 ovarian = tested on: OVCAR-3 ovarian
M14 melanoma = tested on: M14 melanoma
TK-10 renal = tested on: TK-10 renal
SF-295 CNS = tested on: SF-295 CNS
HOP-62 NSCLC = tested on: HOP-62 NSCLC
ACHN renal = tested on: ACHN renal
K-562 leukemia = tested on: K-562 leukemia
RPMI-8226 leukemia = tested on: RPMI-8226 leukemia
SF-268 CNS = tested on: SF-268 CNS
SNB-75 CNS = tested on: SNB-75 CNS
NCI-H226 lung = tested on: NCI-H226 lung
MOLT-4 leukemia = tested on: MOLT-4 leukemia
MDA-MB-435 = tested on: MDA-MB-435
RXF 393 renal = tested on: RXF 393 renal
MDA-N = tested on: MDA-N
UO-31 renal = tested on: UO-31 renal
A549 NSCLC = tested on: A549 NSCLC
HL-60(TB) leukemia = tested on: HL-60(TB) leukemia
HCC-2998 colon = tested on: HCC-2998 colon
OVCAR-8 ovarian = tested on: OVCAR-8 ovarian
SF-539 CNS = tested on: SF-539 CNS
U251 CNS = tested on: U251 CNS
MCF7 breast = tested on: MCF7 breast
786-0 renal = tested on: 786-0 renal
UACC-257 melanoma = tested on: UACC-257 melanoma
T-47D breast = tested on: T-47D breast
HT29 colon = tested on: HT29 colon
CAKI-1 renal = tested on: CAKI-1 renal
SR leukemia = tested on: SR leukemia
LOX IMVI melanoma = tested on: LOX IMVI melanoma
NCI/ADR-RES ovarian = tested on: NCI/ADR-RES ovarian
HCT-116 colon = tested on: HCT-116 colon
OVCAR-4 ovarian = tested on: OVCAR-4 ovarian
PC-3 prostate = tested on: PC-3 prostate
BT-549 breast = tested on: BT-549 breast
SW-620 colon = tested on: SW-620 colon
HOP-92 NSCLC = tested on: HOP-92 NSCLC
OVCAR-5 ovarian = tested on: OVCAR-5 ovarian
DU-145 prostate = tested on: DU-145 prostate
KM12 colon = tested on: KM12 colon
HS 578T breast = tested on: HS 578T breast
EKVX NSCLC = tested on: EKVX NSCLC
SK-MEL-5 melanoma = tested on: SK-MEL-5 melanoma
HCT-15 colon = tested on: HCT-15 colon
NCI-H522 lung = tested on: NCI-H522 lung
A498 renal = tested on: A498 renal
MDA-MB-231 breast = tested on: MDA-MB-231 breast
CCRF-CEM leukemia = tested on: CCRF-CEM leukemia
SNB-19 CNS = tested on: SNB-19 CNS
SK-OV-3 ovarian = tested on: SK-OV-3 ovarian
COLO 205 colon = tested on: COLO 205 colon
MALME-3M melanoma = tested on: MALME-3M melanoma
SN12C renal = tested on: SN12C renal
UACC-62 melanoma = tested on: UACC-62 melanoma

C/C=C(\C)[C@@H](O)C(=O)O[C@@H]1CC(C(C)(C)O)[C@](C)(CCC(=O)OC)[C@H]2[C@H](OC(=O)[C@H](O)[C@H](C)CC)C[C@]3(C)C(=CC[C@H]3[C@H]3CO[C@H](C=C(C)C)C3)[C@]12C (some centres not stated)
TGI (SK-MEL-28 melanoma): 40.3 µM
TGI (NCI-H23 lung): 37.7 µM
TGI (NCI-H460 lung): 38.6 µM
TGI (IGROV1 ovarian): > 100 µM
TGI (SK-MEL-2 melanoma): 32.4 µM
TGI (OVCAR-3 ovarian): 44.2 µM
TGI (M14 melanoma): 32.8 µM
TGI (TK-10 renal): 61.7 µM
TGI (SF-295 CNS): > 100 µM
TGI (HOP-62 NSCLC): > 100 µM
TGI (ACHN renal): 34.1 µM
TGI (K-562 leukemia): 42.4 µM
TGI (RPMI-8226 leukemia): 38.3 µM
TGI (SF-268 CNS): 36.8 µM
TGI (SNB-75 CNS): 37.6 µM
TGI (NCI-H226 lung): 50.9 µM
TGI (MOLT-4 leukemia): 48.2 µM
TGI (MDA-MB-435): 52.5 µM
TGI (RXF 393 renal): 32.9 µM
TGI (MDA-N): 35.4 µM
TGI (UO-31 renal): 33.5 µM
TGI (A549 NSCLC): 61.7 µM
TGI (HL-60(TB) leukemia): 40.6 µM
TGI (HCC-2998 colon): 29.7 µM
TGI (OVCAR-8 ovarian): 33.9 µM
TGI (SF-539 CNS): 35.8 µM
TGI (U251 CNS): 33.4 µM
TGI (MCF7 breast): 42.1 µM
TGI (786-0 renal): 29.5 µM
TGI (UACC-257 melanoma): 49.9 µM
TGI (T-47D breast): 87.1 µM
TGI (HT29 colon): 34.5 µM
TGI (CAKI-1 renal): 87.2 µM
TGI (SR leukemia): 40.2 µM
TGI (LOX IMVI melanoma): 31.4 µM
TGI (NCI/ADR-RES ovarian): 30.5 µM
TGI (HCT-116 colon): 31.9 µM
TGI (OVCAR-4 ovarian): 41.8 µM
TGI (PC-3 prostate): 34.9 µM
TGI (BT-549 breast): 32.7 µM
TGI (SW-620 colon): 58 µM
TGI (HOP-92 NSCLC): 71.7 µM
TGI (OVCAR-5 ovarian): 43.2 µM
TGI (DU-145 prostate): 98.5 µM
TGI (KM12 colon): 65.3 µM
TGI (HS 578T breast): 41 µM
TGI (EKVX NSCLC): 29.8 µM
TGI (SK-MEL-5 melanoma): 33.2 µM
TGI (HCT-15 colon): 37.4 µM
TGI (NCI-H522 lung): 29.5 µM
TGI (A498 renal): 60.2 µM
TGI (MDA-MB-231 breast): 38.4 µM

C[N+](C)(C)CCN(Cc1cccs1)c1ccccn1
TGI (SK-MEL-28 melanoma): > 100 µM
TGI (NCI-H23 lung): > 100 µM
TGI (NCI-H460 lung): > 100 µM
TGI (IGROV1 ovarian): > 100 µM
TGI (SK-MEL-2 melanoma): > 100 µM
TGI (CCRF-CEM leukemia): > 100 µM
TGI (OVCAR-3 ovarian): > 100 µM
TGI (SNB-19 CNS): > 100 µM
TGI (M14 melanoma): > 100 µM
TGI (SK-OV-3 ovarian): > 100 µM
TGI (TK-10 renal): > 100 µM
TGI (SF-295 CNS): > 100 µM
TGI (HOP-62 NSCLC): > 100 µM
TGI (ACHN renal): > 100 µM
TGI (K-562 leukemia): > 100 µM
TGI (RPMI-8226 leukemia): > 100 µM
TGI (SF-268 CNS): > 100 µM
TGI (SNB-75 CNS): > 100 µM
TGI (NCI-H226 lung): > 100 µM
TGI (MDA-MB-435): > 100 µM
TGI (RXF 393 renal): > 100 µM
TGI (MDA-N): > 100 µM
TGI (UO-31 renal): > 100 µM
TGI (COLO 205 colon): > 100 µM
TGI (A549 NSCLC): > 100 µM
TGI (HL-60(TB) leukemia): > 100 µM
TGI (HCC-2998 colon): > 100 µM
TGI (MALME-3M melanoma): > 100 µM
TGI (OVCAR-8 ovarian): > 100 µM
TGI (SF-539 CNS): > 100 µM
TGI (U251 CNS): > 100 µM
TGI (MCF7 breast): > 100 µM
TGI (786-0 renal): > 100 µM
TGI (SN12C renal): > 100 µM
TGI (UACC-257 melanoma): > 100 µM
TGI (T-47D breast): > 100 µM
TGI (CAKI-1 renal): > 100 µM
TGI (SR leukemia): > 100 µM
TGI (LOX IMVI melanoma): > 100 µM
TGI (NCI/ADR-RES ovarian): > 100 µM
TGI (HCT-116 colon): > 100 µM
TGI (OVCAR-4 ovarian): > 100 µM
TGI (PC-3 prostate): > 100 µM
TGI (BT-549 breast): > 100 µM
TGI (SW-620 colon): > 100 µM
TGI (HOP-92 NSCLC): 73.9 µM
TGI (DU-145 prostate): > 100 µM
TGI (KM12 colon): > 100 µM
TGI (UACC-62 melanoma): > 100 µM
TGI (HS 578T breast): > 100 µM
TGI (SK-MEL-5 melanoma): > 100 µM
TGI (HCT-15 colon): > 100 µM
TGI (NCI-H522 lung): > 100 µM
TGI (A498 renal): > 100 µM
TGI (MDA-MB-231 breast): > 100 µM

CC(C)OC(=O)[C@@H]1OC(C)(C)O[C@H]1C(=O)OC(C)C
TGI (NCI-H23 lung): > 100 µM
TGI (NCI-H460 lung): > 100 µM
TGI (IGROV1 ovarian): > 100 µM
TGI (SK-MEL-2 melanoma): > 100 µM
TGI (CCRF-CEM leukemia): > 100 µM
TGI (SNB-19 CNS): > 100 µM
TGI (SK-OV-3 ovarian): > 100 µM
TGI (TK-10 renal): > 100 µM
TGI (SF-295 CNS): > 100 µM
TGI (HOP-62 NSCLC): > 100 µM
TGI (ACHN renal): > 100 µM
TGI (K-562 leukemia): > 100 µM
TGI (RPMI-8226 leukemia): > 100 µM
TGI (SF-268 CNS): > 100 µM
TGI (SNB-75 CNS): > 100 µM
TGI (NCI-H226 lung): > 100 µM
TGI (MOLT-4 leukemia): > 100 µM
TGI (MDA-MB-435): > 100 µM
TGI (RXF 393 renal): > 100 µM
TGI (MDA-N): > 100 µM
TGI (UO-31 renal): > 100 µM
TGI (COLO 205 colon): > 100 µM
TGI (A549 NSCLC): > 100 µM
TGI (HCC-2998 colon): > 100 µM
TGI (MALME-3M melanoma): > 100 µM
TGI (OVCAR-8 ovarian): > 100 µM
TGI (SF-539 CNS): > 100 µM
TGI (U251 CNS): > 100 µM
TGI (MCF7 breast): > 100 µM
TGI (786-0 renal): > 100 µM
TGI (SN12C renal): > 100 µM
TGI (UACC-257 melanoma): > 100 µM
TGI (T-47D breast): > 100 µM
TGI (HT29 colon): > 100 µM
TGI (CAKI-1 renal): > 100 µM
TGI (SR leukemia): > 100 µM
TGI (LOX IMVI melanoma): > 100 µM
TGI (NCI/ADR-RES ovarian): > 100 µM
TGI (HCT-116 colon): > 100 µM
TGI (OVCAR-4 ovarian): > 100 µM
TGI (PC-3 prostate): > 100 µM
TGI (BT-549 breast): > 100 µM
TGI (SW-620 colon): > 100 µM
TGI (HOP-92 NSCLC): > 100 µM
TGI (OVCAR-5 ovarian): > 100 µM
TGI (DU-145 prostate): > 100 µM
TGI (KM12 colon): > 100 µM
TGI (UACC-62 melanoma): > 100 µM
TGI (HS 578T breast): > 100 µM
TGI (EKVX NSCLC): > 100 µM
TGI (SK-MEL-5 melanoma): > 100 µM
TGI (HCT-15 colon): > 100 µM
TGI (NCI-H522 lung): > 100 µM
TGI (A498 renal): > 100 µM
TGI (MDA-MB-231 breast): > 100 µM
